The source of these data is patent US20100222437A1, “C[…]-PSYCHOTROPIC CANNABINOIDS FOR THE TREATMENT OF INFLAMMATORY DISEASES” (priority 2007, published 2010).

The subject of data set [1] is SW480 (Colon cancer) cells. Description: Calcein-AM cytotoxicity assay, SW480. The note with it: SW480, 24 h, compound alone. On the procedure: (§1) The cytotoxic effect of the Cannabigerol (CBG) and Cannabidiol (CBD) alone or in combination was investigated by the Calcein-AM assay. Briefly, AGS, SW480 and HTC116 cells were cultivated at a density of 1.0×10^4 cells/ml in 96-well plates, 200 μl cell suspension per well and cultured in DMEM containing 10% fetal calf serum. Cells were treated with or without CBD, CBG or a combination of both compounds for 24 h, after which the wells were washed and the cells incubated with Calcein-AM (1 μM) (Molecular Probes) for 30 min. Then the fluorescence of viable cells was detected in a microtitre plate reader (TECAN Genius Pro). The intensity of fluorescence was inversely proportional to cell death induced by the compounds.

The subject of data set [2] is AGS (gastric cancer) cells. Description: Calcein-AM cytotoxicity assay, AGS. The note with it: 24 h, compound alone. On the procedure:
as §1

Data set [3] has as its system NF-kB. Nature of the data set: cells. As to conditions: for % INHIBITON OF TNF-α-INDUCED NF-κB ACTIVATION: compound alone. Format: cell-based.
Data set [4] deals with TNF-α. Description: TNF-α release by LPS-stimulated human monocytes (ELISA). Format: cell-based. As to conditions: for release of TNF-α in LPS-stimulated monocytes: LPS 10 ng/ml, 24 h, rank order Denbinobin, CBD, CBG. On the procedure: The inhibitory effect of CARMA-CBG extract on TNF-α release was studied in human peripheral mononuclear phagocytic cells. Monocytes were isolated as in Example 6 and were treated with LPS (10 ng/ml), in the absence or presence of increasing concentrations of CARMA-CBG extract dissolved in DMSO for 24 h. The production of the TNFα was determined by ELISA. […] LPS-mediated activation in the absence of CARMA-CBG was arbitrarily set as 100% of TNF-α release (FIG. 6).
The production of TNF-α was determined by ELISA, on the supernatant of LPS-treated monocytes, as indicated above, in the absence or presence of either CBG, or CBD or Denbinobin, as indicated.
Monocytes from healthy human donors, were treated with LPS (10 ng/ml), in the absence or presence of either CBG, or CBD or Canflavin A or Denbinobin, combined as indicated. The production of TNF-α was determined by ELISA as indicated above.

Data set [5] concerns IL-1β. Description: IL-1β release by LPS-stimulated human monocytes (ELISA). Format: cell-based. The note with it: for release of IL-1β (IL-1) in LPS-stimulated monocytes: LPS 10 ng/ml, 24 h, rank order Denbinobin, CBD, CBG. On the procedure:
The inhibitory effect of CARMA-CBG extract on IL-1β release was studied in human peripheral mononuclear phagocytic cells. Monocytes from healthy human donors were prepared following a standardised protocol (Ficoll gradient preparation) using a completely endotoxin-free cultivation. Using 50 ml tubes, 25 ml Ficoll were loaded with 25 ml blood of buffy coats from healthy blood donors. The gradient was established by centrifugation at 1,800 r.p.m., 20° C. for 40 min by using slow acceleration and brakes. Peripheral blood mononuclear cells in the interphase were carefully removed and re-suspended in 50 ml pre-warmed phosphate buffered saline followed by centrifugation for 10 min at 1,600 r.p.m. and 20° C. The supernatant was discarded and the pellet washed in 50 ml PBS and centrifuged as described above. The pellet was then re-suspended in 50 ml RPMI-1640 low endotoxin-medium supplemented with 10% human serum (PAA). After counting the amount of cells in a particle counter, cells were seeded in 24-well plates for ELISA and incubated at 37° C./5% CO2. The medium and the non-adherent cells (lymphocytes) were removed and fresh RPMI-1640 medium containing 1% human serum was added. The monocytes were treated with LPS (10 ng/ml), in the absence or presence of increasing concentrations of CARMA-CBG extract dissolved in DMSO for 24 h. The production of the IL-1β was determined by ELISA. […] LPS-mediated activation in the absence of CARMA-CBG was arbitrarily set as 100% of IL-1β release (FIG. 5).
Monocytes were isolated from healthy human donors as indicated above, and then treated with LPS (10 ng/ml), in the absence or presence of either CBG, or CBD or Denbinobin, as indicated, dissolved in DMSO. The production of IL-1 was determined by ELISA, and mean values from two independent experiments are shown. Full LPS-mediated activation was arbitrarily set as 100%.
Monocytes from healthy human donors, were treated with LPS (10 ng/ml), in the absence or presence of either CBG, or CBD or Canflavin A or Denbinobin, combined as indicated. The production of IL-1 was determined by ELISA, and mean values from two independent experiments are shown.

For data set [6], the system named is HCT-116 (Colon cancer) cells. Description: Calcein-AM cytotoxicity assay, HCT-116. The note with it: HCT-116, 24 h, compound alone. On the procedure:
as §1

Data set [7] concerns prostaglandin E2. The note with it: cited from earlier work.
Data set [8] has as its system colon cancer cell lines. As to conditions: cited from earlier work.
In data set [9] the test system is leukaemia cell lines. As to conditions: cited from earlier work.
Data set [10] relates to HIV-1. The note with it: cited from earlier work.
The subject of data set [11] is intestinal inflammation. The note with it: mice with induced IBD; cited from earlier work.
For data set [12], the target named is T1, CB1 receptors in intestine submucose neurons (Rattus norvegicus, UniProt P20272).
T1 construct: host or cells: intestine submucose neurons (in vivo)
T1 sequence (P20272 whole entry): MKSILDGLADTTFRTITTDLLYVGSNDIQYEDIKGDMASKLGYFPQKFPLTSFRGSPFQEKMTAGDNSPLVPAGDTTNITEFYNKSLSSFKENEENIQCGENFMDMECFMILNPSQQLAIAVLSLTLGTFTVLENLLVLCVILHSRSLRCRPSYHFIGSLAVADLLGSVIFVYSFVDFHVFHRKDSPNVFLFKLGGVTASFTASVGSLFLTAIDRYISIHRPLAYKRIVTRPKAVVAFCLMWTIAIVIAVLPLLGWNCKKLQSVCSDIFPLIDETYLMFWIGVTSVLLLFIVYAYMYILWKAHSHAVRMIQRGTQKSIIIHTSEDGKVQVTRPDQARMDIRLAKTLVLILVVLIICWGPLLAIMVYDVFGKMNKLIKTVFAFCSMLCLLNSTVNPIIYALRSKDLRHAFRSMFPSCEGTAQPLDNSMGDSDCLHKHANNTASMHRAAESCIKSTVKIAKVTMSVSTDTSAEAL
The note with it: by activating CB1 receptors; cited from earlier work.

Setting [13] is: Homo sapiens, Jurkat, read-out: % INHIBITON OF TNF-α-INDUCED NF-κB ACTIVATION
Where [14] appears, read: Homo sapiens, Monocyte, compound alone, 10 μM, read-out: % INHIBITION OF LPS-INDUCED TNF-α-PRODUCTION
The mark [15] stands for this setting: Homo sapiens, Monocyte, compound alone, 20 μM, read-out: % INHIBITION OF LPS-INDUCED TNF-α-PRODUCTION
The mark [16] stands for this setting: Homo sapiens, Monocyte, compound alone, 20 μM, read-out: % INHIBITION OF LPS-INDUCED IL-1 PRODUCTION

Molecules are shown by their SMILES. Where two headings read alike, the source gives them in different places.

Turning to `CCCCCc1cc(O)c(C/C=C(\C)CCC=C(C)C)c(O)c1` [CBG, Cannabigerol], the “cytotoxicity (cell survival, Calcein-AM)” value in [1], in data set [2] and in [6] was “induced cytotoxicity” each time. In addition, the inhibition at 10 µM in [3] (setting [13]) was 0%; in data set [4] (setting [14]), 24.9%; in data set [5] (Homo sapiens, Monocyte, read-out: % INHIBITION OF LPS-INDUCED IL-1 PRODUCTION) it was 9.4%. The figures for the inhibition at 20 µM in data set [3] (setting [13]), in [4] (setting [15]) and in [5] (setting [16]) were 18.3%, 59.8% and 32.6%, respectively. Besides, the “release of TNF-α in LPS-stimulated monocytes” value (shortened to “release of TNF-α”) in data set [4] is recorded as “significant concentration-dependent decrease”. Further, the “release of IL-1β (IL-1) in LPS-stimulated monocytes” value (from here on “release of IL-1β”) in data set [5] is “significant concentration-dependent decrease”.

For the molecule `COc1cc(-c2cc(=O)c3c(O)c(C/C=C(\C)CCC=C(C)C)c(O)cc3o2)ccc1O` [Canflavin A], the “release of prostaglandin E2” value in data set [7] was “can inhibit”. Besides, the inhibition at 10 µM in [3] (setting [13]) was found to be 16.6%; in data set [4] (setting [14]) it was 0%; in data set [5] (Homo sapiens, Monocyte, compound alone, 10 μM, read-out: % INHIBITION OF LPS-INDUCED IL-1 PRODUCTION), 0%. Also, the inhibition at 20 µM in [3] (setting [13]) is 38.8%; in data set [4] (setting [15]), 0%; in [5] (setting [16]) it was 0%.

Take `C=C(C)[C@@H]1CCC(C)=C[C@H]1c1c(O)cc(CCCCC)cc1O` [CBD, Cannabidiol]: the “cytotoxicity (cell survival, Calcein-AM)” value in [1], in [2] and in data set [6] was “induced cytotoxicity” throughout. For the same molecule, the results for the “% INHIBITON OF TNF-α-INDUCED NF-κB ACTIVATION” value in [3] (10 μM) and in data set [3] (20 μM) were 14.43% and 59.67%, respectively. Besides, the “release of TNF-α” value in data set [4] is reported as “significant concentration-dependent decrease”. In addition, the “% INHIBITION OF LPS-INDUCED TNF-α-PRODUCTION” value is given as 33.30% in data set [4] (compound alone, 10 μM) and 83.60% in data set [4] (compound alone, 20 μM). The “release of IL-1β” value in data set [5] is on record as “significant concentration-dependent decrease”. The “% INHIBITION OF LPS-INDUCED IL-1 PRODUCTION” value in data set [5] (compound alone, 10 μM) amounted to 70.10%; in data set [5] (compound alone, 20 μM), 84.00%.

As to `COC1=CC(=O)c2ccc3cc(OC)cc(O)c3c2C1=O` [Denbinobin], the anti-tumoral activity entry in [8] and in [9] was “anti-tumoral activities” in each case. The inhibition at 1 µM in data set [3] (setting [13]) came to 44.9%; in data set [4] (Homo sapiens, Monocyte, compound alone, 1 μM, read-out: % INHIBITION OF LPS-INDUCED TNF-α-PRODUCTION), 32%; in data set [5] (Homo sapiens, Monocyte, compound alone, 1 μM, read-out: % INHIBITION OF LPS-INDUCED IL-1 PRODUCTION), 37%. The inhibition at 2 µM in data set [3] (setting [13]) stood at 93.1%; in [4] (Homo sapiens, Monocyte, compound alone, 2 μM, read-out: % INHIBITION OF LPS-INDUCED TNF-α-PRODUCTION), 64%. The “release of TNF-α” value in data set [4] is “significant concentration-dependent decrease”. Moreover, the “release of IL-1β” value in [5] is “significant concentration-dependent decrease”. The “% INHIBITION OF LPS-INDUCED IL-1 PRODUCTION” value in data set [5] (compound alone, 2 μM00) is 70.00%. Further, the “HIV-1 replication in T cells” value in data set [10] is “can inhibit”.

In the case of `CCCCCc1cc(O)c2c(c1)OC(C)(C)[C@@H]1CCC(C)=C[C@@H]21` [THC, Δ-9-Tetrahydrocannabinoid], the intestinal inflammation entry in [11] is reported as “reduces”. In addition, the gastrointestinal motility result in [12] is “inhibits”.
